Test results from patent publication US20240239801A1, “PYRIMIDO[5,4,D]PYRIMIDINE COMPOUNDS, COMPOSITIONS COMPRISING THEM AND USES THEREOF” (Université de Montréal, priority 2021, published 2024).
Like-named read-outs stand apart in the source and are kept apart here.

Key:
HCT116 pERK = assay: Phospho-ERK inhibition, AlphaLISA SureFire Ultra p-ERK 1/2; format: cell-based, human; conditions: for HCT116 pERK, value in parentheses, % inhibition: % Ymin of pERK IC50 curve; for HCT116 (Ymin %): lowest value of the pERK IC50 curve
Outline: (§1)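 Cells plated in RPMI-1640 with 5% FBS, held overnight, then exposed 1 h to ten-point compound dilutions (top 30 or 10 μM down to 0.33 nM; 0.5% DMSO). Lysates read for p-ERK1/2 (Thr202/Tyr204) by AlphaLISA; % inhibition relative to DMSO after subtracting a 1 μM trametinib background; IC50 from four-parameter fit.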

SW480 pERK = assay: as above; format: cell-based, human; conditions: for SW480 pERK, value in parentheses, % inhibition: % Ymin of pERK IC50 curve; for SW480 (Ymin %): lowest value of the pERK IC50 curve
Outline: as §1

[1] = Homo sapiens, HCT-116, Table D-1
[2] = Homo sapiens, SW480, Table D-2, read-out: SW480 pERK IC50
[3] = Table 3, 1 h treatment, read-out: SW480 PERK IC50
[4] = Table D-2, read-out: SW480 pERK IC50

IC50 (HCT116 pERK; [1]) [µM] | IC50 (SW480 pERK; [2]) [µM] | IC50 (HCT116 pERK; Table 3, 1 h treatment) [µM] | IC50 (SW480 pERK; [3]) [µM] | IC50 (HCT116 pERK; Table D-1) [µM] | IC50 (SW480 pERK; [4]) [µM] | IC50 (HCT116 pERK; Homo sapiens, HCT-116, Table 3, 1 h treatment) [µM] | IC50 (SW480 pERK; Homo sapiens, SW480, Table 3, 1 h treatment, read-out: SW480 PERK IC50) [µM] | Compound | HCT116 pERK, value in parentheses, % inhibition (HCT116 pERK; Table D-1) | SW480 pERK, value in parentheses, % inhibition (SW480 pERK; Table D-2) | HCT116 (Ymin %) (HCT116 pERK; Table 3) | SW480 (Ymin %) (SW480 pERK; Table 3) [%]
0.03 to 0.3 | 0.03 to 0.3 | – | – | – | – | – | – | Cc1ccc2c(Nc3cccc(Cl)c3F)nccc2c1NC(=O)c1csc2c(N)ncnc12 [Belvarafenib, reference compound] | (−46) % | (−100) % | – | –
– | – | < 0.5 | < 0.5 | – | – | – | – | Nc1cccc2c1ncn2-c1ncc2ncnc(Nc3c(F)ccc(NS(=O)(=O)c4cccc(Cl)c4Cl)c3F)c2n1 [Example 80] | – | – | −7% | −2
– | – | – | < 0.5 | 0.03 to 0.3 | 0.03 to 0.3 | – | – | Cc1c(F)cccc1S(=O)(=O)Nc1ccc(F)c(Nc2ncnc3cnc(-n4cc(C(=O)N(C)Cc5ccncc5)c5ccccc54)nc23)c1F [Example 98] | (−6.0) % | (−1) % | (−6.0) % | −1
– | – | 0.5 to 1 | < 0.5 | > 0.3 | 0.03 to 0.3 | – | – | COc1ccc(S(=O)(=O)Nc2ccc(F)c(Nc3ncnc4cnc(-n5cnc6c(N)cccc65)nc34)c2F)c(C)c1Cl [Example 112] | (−0.8) % | (−7) % | −0.8% | −7
> 0.3 | 0.03 to 0.3 | – | – | – | – | < 0.5 | < 0.5 | Cc1c(F)cccc1S(=O)(=O)Nc1ccc(F)c(Nc2ncnc3cnc(-n4cnc5c(-c6cccnc6)cccc54)nc23)c1F [Example 114] | (−4.9) % | (1) % | – | 2
– | – | < 0.5 | < 0.5 | 0.03 to 0.3 | 0.03 to 0.3 | – | – | O=S(=O)(Nc1ccc(F)c(Nc2ncnc3cnc(-n4cnc5c(N6CCC7(CCCO7)CC6)cccc54)nc23)c1F)c1cccc(Cl)c1Cl [Example 129] | (−8) % | (3) % | −8% | 3
